From patent publication US20220175768A1, “FGFR TYROSINE KINASE INHIBITORS FOR THE TREATMENT OF UROTHELIAL CARCINOMA” (Janssen Pharmaceutica NV, priority 2019, published 2022)
Where two headings read alike, the source gives them in different places.

[1] = 8 mg continuous, selected regimen 3 (n = 99)
[2] = 8 mg continuous, selected regimen 3 (n = 99), Table 14
[3] = 10 mg intermittent, regimen 1 (n = 33)

Description: Study treatment was administered on 28-day cycles. Prior to interim analysis 1, there were 2 treatment regimens. Patients were randomized 1:1 to 28-day cycles to the following 2 regimens until a regimen was selected for further study: Regimen 1 (10 mg once daily intermittent (7 days on/7 days); Regimen 2 (6 mg once daily continuous). Randomization was stratified according to performance status (0 to 1 vs. 2), hemoglobin value (<10 vs. ≥10 g per dl), FGFR alteration type (mutation vs. fusion), prior treatment status (chemotherapy-resistant vs. chemotherapy naïve), and disease distribution (presence or absence of visceral [liver, lung, bone] metastases). Starting dose selection was based on phase 1 efficacy and tolerability.
Thus, after interim analysis, this became a single-arm study. […] Treatment continued until disease progression or unacceptable adverse event(s) per investigator.
All objective responses required confirmation by an additional investigator assessment within 4 to 6 weeks of first assessment. Disease evaluations for regimen 3 were also performed by an independent radiographic review committee. […] Safety was evaluated based on clinical laboratory tests, physical exams, electrocardiograms, and ophthalmology examinations. Adverse events and abnormalities were assessed by investigator and graded per NCI CTCAE v.4.0
Prophylactic measures were taken to minimize risk of common adverse events related to FGFR inhibition. To reduce risk of hyperphosphatemia, a low-phosphate diet was recommended for all patients (600 to 800 mg of dietary phosphate intake per day). To reduce the risk of skin effects, the application of alcohol-free emollient moisturizing cream and avoidance of unnecessary exposure to sunlight, soap, perfumed products, and hot baths was recommended. Patients were asked to keep their fingers and toes clean and nails trimmed to reduce risk of nail effects.
Additional ophthalmology examinations were performed if clinically indicated.

COc1cc(OC)cc(N(CCNC(C)C)c2ccc3ncc(-c4cnn(C)c4)nc3c2)c1 [erdafitinib, N-(3,5-dimethoxy-phenyl)-N′-(1-methylethyl)-N-[3-(1-methyl-1H-pyrazol-4-yl)quinoxalin-6-yl]ethane-1,2-diamine]
6 (6) no. (%): Patients with Nail dystrophy, Grade ≥3 [1] | Patients with Nausea, Grade 2 [1] | Patients with Onycholysis, Grade 1 [1]
7 (21) no. (%): Patients with Arthralgia, Any grade [3] | Patients with Diarrhea, Grade 1 [3] | Patients with Dysgeusia, Grade 1 [3]
1 (1) no. (%): Patients with Hypomagnesemia, Grade 2 [1] | Patients with Hyponatremia, Grade 1 [1] | Patients with Nausea, Grade ≥3 [1] | Patients with Oropharyngeal pain, Grade 2 [1] | Patients with Oropharyngeal pain, Grade ≥3 [1] | Patients with Peripheral edema, Grade ≥3 [1] | Patients with Vomiting, Grade 2 [1]
6 (18) no. (%): Patients with Anemia, Grade ≥3 [3] | Patients with Constipation, Grade 2 [3] | Patients with Decreased appetite, Grade 2 [3] | Patients with Diarrhea, Grade 2 [3] | Patients with Fatigue, Any grade [3]
10 (30) no. (%): Patients with Asthenia, Any grade [3] | Patients with Dysgeusia, Any grade [3]
16 (48) no. (%): Patients with Dry mouth, Any grade [3]
3 (9) no. (%): Patients with Arthralgia, Grade 1 [3] | Patients with Asthenia, Grade 2 [3] | Patients with Back pain, Grade ≥3 [3] | Patients with Blood creatinine increased, Grade 1 [3] | Patients with Conjunctivitis, Grade 1 [3] | Patients with Dry eye, Any grade [3] | Patients with Dysgeusia, Grade 2 [3] | Patients with Dyspepsia, Any grade [3] | Patients with Dyspnea, Grade 1 [3] | Patients with Dyspnea, Grade ≥3 [3] | Patients with Hematuria, Any grade [3]
18 (18) no. (%): Patients with Onycholysis, Any grade [1]
3 (3) no. (%): Patients with Insomnia, Grade 2 [1] | Patients with Lacrimation increased, Grade 2 [1] | Patients with Paronychia, Grade 1 [1] | Patients with Paronychia, Grade ≥3 [1] | Patients with Peripheral edema, Grade 2 [1] | Patients with Retinal detachment, Grade 1 [1]
0 no.: Patients with Alopecia, Grade ≥3 [2] | Patients with Decreased appetite, Grade ≥3 [2] | Patients with Dry mouth, Grade ≥3 [2] | Patients with Dry skin, Grade ≥3 [2] | Patients with Urinary tract infection, Grade 1 [2] | Patients with Vision blurred, Grade ≥3 [2]
8 (8) no. (%): Patients with Lacrimation increased, Grade 1 [1] | Patients with Oropharyngeal pain, Grade 1 [1] | Patients with Pyrexia, Grade 1 [1] | Patients with Weight decreased, Grade 2 [1]
21 (21) no. (%): Patients with Stomatitis, Grade 1 [1]
8 (24) no. (%): Patients with Anemia, Any grade [3] | Patients with Constipation, Grade 1 [3] | Patients with Dry skin, Grade 1 [3] | Patients with Dyspnea, Any grade [3]
9 (9) no. (%): Patients with Hypomagnesemia, Grade 1 [1] | Patients with Peripheral edema, Any grade [1]
68%: Patients with grade ≥3 treatment-emergent adverse events (8 mg per day continuous group uptitrated to 9 mg per day)
5 (5) no. (%): Patients with Nail dystrophy, Grade 1 [1] | Patients with Nail dystrophy, Grade 2 [1] | Patients with Onychomadesis, Grade 2 [1] | Patients with Peripheral edema, Grade 1 [1] | Patients with Pyrexia, Grade 2 [1] | Patients with Retinal detachment, Any grade [1] | Patients with Urinary tract infection, Grade ≥3 [1]
57 (58) no. (%): Patients with Stomatitis, Any grade [1]
5 (15) no. (%): Patients with Abdominal pain, Any grade [3] | Patients with Asthenia, Grade 1 [3] | Patients with Back pain, Any grade [3]
4 (4) no. (%): Patients with Insomnia, Grade 1 [1]
13 (13) no. (%): Patients with Nausea, Grade 1 [1] | Patients with Pyrexia, Any grade [1] | Patients with Vomiting, Any grade [1]
0 no. (%): Patients with Hypomagnesemia, Grade ≥3 [1] | Patients with Hyponatremia, Grade 2 [1] | Patients with Insomnia, Grade ≥3 [1] | Patients with Lacrimation increased, Grade ≥3 [1] | Patients with Onychomadesis, Grade ≥3 [1] | Patients with Pain in extremity, Grade ≥3 [1] | Patients with Pyrexia, Grade ≥3 [1] | Patients with Retinal detachment, Grade ≥3 [1] | Patients with Urinary tract infection, Grade 1 [1] | Patients with Vision blurred, Grade ≥3 [1] | Patients with Weight decreased, Grade ≥3 [1] | Patients with Alanine aminotransferase increased, Grade 1 [3] | Patients with Alanine aminotransferase increased, Grade ≥3 [3] | Patients with Alopecia, Grade ≥3 [3] | Patients with Aspartate aminotransferase increased, Grade 2 [3] | Patients with Aspartate aminotransferase increased, Grade ≥3 [3] | Patients with Blood creatinine increased, Grade ≥3 [3] | Patients with Conjunctivitis, Grade ≥3 [3] | Patients with Constipation, Grade ≥3 [3] | Patients with Dry eye, Grade ≥3 [3] | Patients with Dry mouth, Grade ≥3 [3] | Patients with Dry skin, Grade ≥3 [3] | Patients with Dysgeusia, Grade ≥3 [3] | Patients with Dyspepsia, Grade ≥3 [3] | Patients with Fatigue, Grade ≥3 [3] | Patients with Hand-foot syndrome, Grade 1 [3] | Patients with Hand-foot syndrome, Grade ≥3 [3]
15 (46) no. (%): Patients with Dry mouth, Grade 1 [3]
20 (20) no. (%): Patients with Nausea, Any grade [1]
4 (12) no. (%): Patients with Alopecia, Any grade [3] | Patients with Blood creatinine increased, Any grade [3] | Patients with Conjunctivitis, Any grade [3] | Patients with Decreased appetite, Grade 1 [3] | Patients with Fatigue, Grade 1 [3]
17 (17) no. (%): Patients with Paronychia, Any grade [1] | Patients with Vision blurred, Any grade [1]
2 (6) no. (%): Patients with Abdominal pain, Grade 1 [3] | Patients with Abdominal pain, Grade 2 [3] | Patients with Alopecia, Grade 1 [3] | Patients with Alopecia, Grade 2 [3] | Patients with Arthralgia, Grade 2 [3] | Patients with Arthralgia, Grade ≥3 [3] | Patients with Aspartate aminotransferase increased, Any grade [3] | Patients with Aspartate aminotransferase increased, Grade 1 [3] | Patients with Asthenia, Grade ≥3 [3] | Patients with Dry eye, Grade 1 [3] | Patients with Dyspepsia, Grade 1 [3] | Patients with Dyspnea, Grade 2 [3] | Patients with Fatigue, Grade 2 [3] | Patients with Hand-foot syndrome, Any grade [3] | Patients with Hand-foot syndrome, Grade 2 [3] | Patients with Hematuria, Grade 2 [3]
14 (42) no. (%): Patients with Constipation, Any grade [3] | Patients with Diarrhea, Any grade [3]
63%: Patients with some type of eye disorder, regardless of relation to treatment (8 mg per day continuous)
11 (11) no. (%): Patients with Hyponatremia, Grade ≥3 [1] | Patients with Lacrimation increased, Any grade [1] | Patients with Paronychia, Grade 2 [1] | Patients with Urinary tract infection, Grade 2 [1]
1 (3) no. (%): Patients with Abdominal pain, Grade ≥3 [3] | Patients with Alanine aminotransferase increased, Any grade [3] | Patients with Alanine aminotransferase increased, Grade 2 [3] | Patients with Anemia, Grade 1 [3] | Patients with Anemia, Grade 2 [3] | Patients with Back pain, Grade 1 [3] | Patients with Back pain, Grade 2 [3] | Patients with Blood creatinine increased, Grade 2 [3] | Patients with Conjunctivitis, Grade 2 [3] | Patients with Decreased appetite, Grade ≥3 [3] | Patients with Diarrhea, Grade ≥3 [3] | Patients with Dry eye, Grade 2 [3] | Patients with Dry mouth, Grade 2 [3] | Patients with Dry skin, Grade 2 [3] | Patients with Dyspepsia, Grade 2 [3] | Patients with Hematuria, Grade 1 [3]
11 (33) no. (%): Patients with Decreased appetite, Any grade [3]
7 (7) no. (%): Patients with Insomnia, Any grade [1] | Patients with Onychomadesis, Any grade [1] | Patients with Vision blurred, Grade 2 [1] | Patients with Weight decreased, Grade 1 [1]
26 (26) no. (%): Patients with Stomatitis, Grade 2 [1]
16 (16) no. (%): Patients with Nail dystrophy, Any grade [1] | Patients with Urinary tract infection, Any grade [1]
2 (2) no. (%): Patients with Hyperphosphatemia, Grade ≥3 [1] | Patients with Onycholysis, Grade ≥3 [1] | Patients with Onychomadesis, Grade 1 [1] | Patients with Pain in extremity, Grade 2 [1] | Patients with Retinal detachment, Grade 2 [1] | Patients with Vomiting, Grade ≥3 [1]
9 (27) no. (%): Patients with Dry skin, Any grade [3]
12 (12) no. (%): Patients with Hyponatremia, Any grade [1] | Patients with Pain in extremity, Any grade [1]
15 (15) no. (%): Patients with Weight decreased, Any grade [1]
10 (10) no. (%): Patients with Hypomagnesemia, Any grade [1] | Patients with Onycholysis, Grade 2 [1] | Patients with Oropharyngeal pain, Any grade [1] | Patients with Pain in extremity, Grade 1 [1] | Patients with Stomatitis, Grade ≥3 [1] | Patients with Vision blurred, Grade 1 [1] | Patients with Vomiting, Grade 1 [1]
